# In the NIST ThermoML archive (doi:10.1016/j.jct.2014.11.001):
# “And” between values parts separate entries of the source, which are not always exact repeats. Equal entries are not always repeated. Numbers after ± are expanded uncertainties.
# Key:
# [1] = for Normal melting temperature: DTA
# [2] = Molar enthalpy of transition or fusion; details: Crystal; DSC
smiles,measurement,setting,value
NC(=O)c1cccnc1 [3-pyridinecarboxamide],vapor or sublimation pressure,"[1]; 341.25 K, Crystal, Calculated from knudsen effusion weight loss",9.3e-05 ± 2e-05 kPa
same,vapor or sublimation pressure,"[1]; 343.28 K, Crystal, Calculated from knudsen effusion weight loss",0.000117 ± 2e-05 kPa and 0.000116 ± 2e-05 kPa
same,vapor or sublimation pressure,"[1]; 345.05 K, Crystal, Calculated from knudsen effusion weight loss",0.000142 ± 2.1e-05 kPa and 0.000141 ± 2.1e-05 kPa and 0.000144 ± 2.1e-05 kPa
same,vapor or sublimation pressure,"[1]; 347.23 K, Crystal, Calculated from knudsen effusion weight loss",0.000182 ± 2.1e-05 kPa and 0.000183 ± 2.1e-05 kPa and 0.000184 ± 2.1e-05 kPa
same,vapor or sublimation pressure,"[1]; 349.26 K, Crystal, Calculated from knudsen effusion weight loss",0.000228 ± 2.2e-05 kPa and 0.000226 ± 2.2e-05 kPa and 0.00023 ± 2.2e-05 kPa
same,vapor or sublimation pressure,"[1]; 351.07 K, Crystal, Calculated from knudsen effusion weight loss",0.000277 ± 2.2e-05 kPa and 0.000275 ± 2.2e-05 kPa and 0.00028 ± 2.2e-05 kPa
same,vapor or sublimation pressure,"[1]; 353.24 K, Crystal, Calculated from knudsen effusion weight loss",0.000356 ± 2.4e-05 kPa and 0.000352 ± 2.4e-05 kPa
same,vapor or sublimation pressure,"[1]; 355.27 K, Crystal, Calculated from knudsen effusion weight loss",0.000434 ± 2.5e-05 kPa and 0.00043 ± 2.5e-05 kPa and 0.000436 ± 2.5e-05 kPa
same,vapor or sublimation pressure,"[1]; 356.6 K, Crystal, Closed cell (Static) method",0.00051 ± 0.00013 kPa
same,vapor or sublimation pressure,"[1]; 357.06 K, Crystal, Calculated from knudsen effusion weight loss",0.000528 ± 2.7e-05 kPa and 0.000517 ± 2.7e-05 kPa and 0.000525 ± 2.7e-05 kPa
same,vapor or sublimation pressure,"[1]; 358.66 K, Crystal, Closed cell (Static) method",0.00063 ± 0.00013 kPa
same,vapor or sublimation pressure,"[1]; 359.25 K, Crystal, Calculated from knudsen effusion weight loss",0.000666 ± 3.1e-05 kPa and 0.000648 ± 3e-05 kPa and 0.000656 ± 3.1e-05 kPa
same,vapor or sublimation pressure,"[1]; 360.58 K, Crystal, Closed cell (Static) method",0.00078 ± 0.00013 kPa
same,vapor or sublimation pressure,"[1]; 361.29 K, Crystal, Calculated from knudsen effusion weight loss",0.000812 ± 3.5e-05 kPa and 0.000792 ± 3.4e-05 kPa and 0.000807 ± 3.5e-05 kPa
same,vapor or sublimation pressure,"[1]; 363.06 K, Crystal, Calculated from knudsen effusion weight loss",0.000975 ± 4e-05 kPa and 0.000964 ± 4e-05 kPa and 0.00097 ± 4e-05 kPa
same,vapor or sublimation pressure,"[1]; 364.49 K, Crystal, Closed cell (Static) method",0.00116 ± 0.00013 kPa
same,vapor or sublimation pressure,"[1]; 366.57 K, Crystal, Closed cell (Static) method",0.00143 ± 0.00014 kPa
same,vapor or sublimation pressure,"[1]; 368.47 K, Crystal, Closed cell (Static) method",0.00172 ± 0.00014 kPa
same,vapor or sublimation pressure,"[1]; 370.51 K, Crystal, Closed cell (Static) method",0.00211 ± 0.00015 kPa
same,vapor or sublimation pressure,"[1]; 372.43 K, Crystal, Closed cell (Static) method",0.00255 ± 0.00016 kPa
same,vapor or sublimation pressure,"[1]; 374.46 K, Crystal, Closed cell (Static) method",0.00311 ± 0.00018 kPa
same,vapor or sublimation pressure,"[1]; 376.31 K, Crystal, Closed cell (Static) method",0.00371 ± 0.00019 kPa
same,vapor or sublimation pressure,"[1]; 378.39 K, Crystal, Closed cell (Static) method",0.00451 ± 0.00022 kPa
same,vapor or sublimation pressure,"[1]; 380.33 K, Crystal, Closed cell (Static) method",0.00536 ± 0.00025 kPa
same,vapor or sublimation pressure,"[1]; 382.34 K, Crystal, Closed cell (Static) method",0.00647 ± 0.00028 kPa
same,vapor or sublimation pressure,"[1]; 384.22 K, Crystal, Closed cell (Static) method",0.00767 ± 0.00033 kPa
same,vapor or sublimation pressure,"[1]; 386.28 K, Crystal, Closed cell (Static) method",0.00925 ± 0.00038 kPa
same,vapor or sublimation pressure,"[1]; 388.17 K, Crystal, Closed cell (Static) method",0.01094 ± 0.00045 kPa
same,vapor or sublimation pressure,"[1]; 390.23 K, Crystal, Closed cell (Static) method",0.01311 ± 0.00052 kPa
same,vapor or sublimation pressure,"[1]; 392.23 K, Crystal, Closed cell (Static) method",0.01553 ± 0.00056 kPa
same,vapor or sublimation pressure,"[1]; 394.43 K, Crystal, Closed cell (Static) method",0.01868 ± 0.00061 kPa
same,vapor or sublimation pressure,"[1]; 396.07 K, Metastable liquid, Closed cell (Static) method",0.02388 ± 0.00069 kPa
same,vapor or sublimation pressure,"[1]; 396.08 K, Crystal, Closed cell (Static) method",0.02158 ± 0.00065 kPa
same,vapor or sublimation pressure,"[1]; 398.04 K, Metastable liquid, Closed cell (Static) method",0.02729 ± 0.00074 kPa
same,vapor or sublimation pressure,"[1]; 398.1 K, Crystal, Closed cell (Static) method",0.02563 ± 0.00071 kPa
same,vapor or sublimation pressure,"[1]; 400.07 K, Metastable liquid, Closed cell (Static) method",0.03101 ± 0.00079 kPa
same,vapor or sublimation pressure,"[1]; 402.04 K, Metastable liquid, Closed cell (Static) method",0.0351 ± 0.00086 kPa
same,vapor or sublimation pressure,"[1]; 404.02 K, Closed cell (Static) method, Liquid",0.03991 ± 0.00093 kPa
same,vapor or sublimation pressure,"[1]; 405.98 K, Closed cell (Static) method, Liquid",0.04492 ± 0.001 kPa
same,vapor or sublimation pressure,"[1]; 407.93 K, Closed cell (Static) method, Liquid",0.05046 ± 0.0011 kPa
same,vapor or sublimation pressure,"[1]; 409.92 K, Closed cell (Static) method, Liquid",0.05717 ± 0.0012 kPa
same,vapor or sublimation pressure,"[1]; 411.89 K, Closed cell (Static) method, Liquid",0.06456 ± 0.0013 kPa
same,vapor or sublimation pressure,"[1]; 413.87 K, Closed cell (Static) method, Liquid",0.07284 ± 0.0014 kPa
same,vapor or sublimation pressure,"[1]; 415.82 K, Closed cell (Static) method, Liquid",0.08179 ± 0.0016 kPa
same,vapor or sublimation pressure,"[1]; 417.81 K, Closed cell (Static) method, Liquid",0.09162 ± 0.0017 kPa
same,vapor or sublimation pressure,"[1]; 419.77 K, Closed cell (Static) method, Liquid",0.103 ± 0.0019 kPa
same,vapor or sublimation pressure,"[1]; 421.72 K, Closed cell (Static) method, Liquid",0.1152 ± 0.0021 kPa
same,vapor or sublimation pressure,"[1]; 423.69 K, Closed cell (Static) method, Liquid",0.1283 ± 0.0023 kPa
same,vapor or sublimation pressure,"[1]; 425.65 K, Closed cell (Static) method, Liquid",0.1428 ± 0.0021 kPa
same,vapor or sublimation pressure,"[1]; 427.62 K, Closed cell (Static) method, Liquid",0.1598 ± 0.0023 kPa
same,vapor or sublimation pressure,"[1]; 429.58 K, Closed cell (Static) method, Liquid",0.1773 ± 0.0024 kPa
same,vapor or sublimation pressure,"[1]; 431.56 K, Closed cell (Static) method, Liquid",0.1973 ± 0.0025 kPa
same,vapor or sublimation pressure,"[1]; 433.69 K, Closed cell (Static) method, Liquid",0.2206 ± 0.0027 kPa
same,Normal melting temperature,[1]; Crystal,128.1 ± 0.4 °C
same,Molar enthalpy of transition or fusion,[2],5.66 ± 0.12 kcal/mol
"CN(C)C(=O)c1cccnc1 [N,N-dimethylnicotinamide]",vapor or sublimation pressure,"[1]; 307.16 K, Metastable liquid, Closed cell (Static) method",0.00057 ± 0.00011 kPa
same,vapor or sublimation pressure,"[1]; 308.18 K, Crystal, Closed cell (Static) method",0.00049 ± 0.00011 kPa
same,vapor or sublimation pressure,"[1]; 309.14 K, Metastable liquid, Closed cell (Static) method",0.00069 ± 0.00011 kPa
same,vapor or sublimation pressure,"[1]; 309.15 K, Crystal, Closed cell (Static) method",0.00056 ± 0.00011 kPa
same,vapor or sublimation pressure,"[1]; 310.13 K, Crystal, Closed cell (Static) method",0.00062 ± 0.00011 kPa
same,vapor or sublimation pressure,"[1]; 311.15 K, Crystal, Closed cell (Static) method",0.0007 ± 0.00011 kPa
same,vapor or sublimation pressure,"[1]; 311.16 K, Metastable liquid, Closed cell (Static) method",0.00082 ± 0.00011 kPa
same,vapor or sublimation pressure,"[1]; 312.13 K, Crystal, Closed cell (Static) method",0.00078 ± 0.00011 kPa
same,vapor or sublimation pressure,"[1]; 313.1 K, Crystal, Closed cell (Static) method",0.00088 ± 0.00011 kPa
same,vapor or sublimation pressure,"[1]; 313.1 K, Metastable liquid, Closed cell (Static) method",0.00099 ± 0.00012 kPa
same,vapor or sublimation pressure,"[1]; 314.09 K, Crystal, Closed cell (Static) method",0.00098 ± 0.00012 kPa
same,vapor or sublimation pressure,"[1]; 315.07 K, Metastable liquid, Closed cell (Static) method",0.00118 ± 0.00012 kPa
same,vapor or sublimation pressure,"[1]; 315.1 K, Crystal, Closed cell (Static) method",0.0011 ± 0.00012 kPa
same,vapor or sublimation pressure,"[1]; 317.09 K, Metastable liquid, Closed cell (Static) method",0.00142 ± 0.00012 kPa
same,vapor or sublimation pressure,"[1]; 319.04 K, Closed cell (Static) method, Liquid",0.00169 ± 0.00013 kPa
same,vapor or sublimation pressure,"[1]; 321.01 K, Closed cell (Static) method, Liquid",0.002 ± 0.00013 kPa
same,vapor or sublimation pressure,"[1]; 322.97 K, Closed cell (Static) method, Liquid",0.00238 ± 0.00014 kPa
same,vapor or sublimation pressure,"[1]; 324.98 K, Closed cell (Static) method, Liquid",0.0028 ± 0.00016 kPa
same,vapor or sublimation pressure,"[1]; 326.94 K, Closed cell (Static) method, Liquid",0.00334 ± 0.00017 kPa
same,vapor or sublimation pressure,"[1]; 328.93 K, Closed cell (Static) method, Liquid",0.00388 ± 0.00019 kPa
same,vapor or sublimation pressure,"[1]; 330.88 K, Closed cell (Static) method, Liquid",0.00459 ± 0.00021 kPa
same,vapor or sublimation pressure,"[1]; 332.9 K, Closed cell (Static) method, Liquid",0.00538 ± 0.00024 kPa
same,vapor or sublimation pressure,"[1]; 334.96 K, Closed cell (Static) method, Liquid",0.00637 ± 0.00027 kPa
same,vapor or sublimation pressure,"[1]; 336.93 K, Closed cell (Static) method, Liquid",0.00748 ± 0.00031 kPa
same,vapor or sublimation pressure,"[1]; 338.92 K, Closed cell (Static) method, Liquid",0.00861 ± 0.00036 kPa
same,vapor or sublimation pressure,"[1]; 340.89 K, Closed cell (Static) method, Liquid",0.01 ± 0.00041 kPa
same,vapor or sublimation pressure,"[1]; 342.87 K, Closed cell (Static) method, Liquid",0.01163 ± 0.00047 kPa
same,vapor or sublimation pressure,"[1]; 344.83 K, Closed cell (Static) method, Liquid",0.0135 ± 0.00052 kPa
same,vapor or sublimation pressure,"[1]; 346.82 K, Closed cell (Static) method, Liquid",0.01555 ± 0.00056 kPa
same,vapor or sublimation pressure,"[1]; 348.79 K, Closed cell (Static) method, Liquid",0.0179 ± 0.00059 kPa
same,vapor or sublimation pressure,"[1]; 350.77 K, Closed cell (Static) method, Liquid",0.02072 ± 0.00063 kPa
same,vapor or sublimation pressure,"[1]; 352.74 K, Closed cell (Static) method, Liquid",0.02375 ± 0.00068 kPa
same,vapor or sublimation pressure,"[1]; 354.72 K, Closed cell (Static) method, Liquid",0.02718 ± 0.00073 kPa
same,vapor or sublimation pressure,"[1]; 356.68 K, Closed cell (Static) method, Liquid",0.03111 ± 0.00079 kPa
same,vapor or sublimation pressure,"[1]; 358.66 K, Closed cell (Static) method, Liquid",0.03534 ± 0.00086 kPa
same,vapor or sublimation pressure,"[1]; 360.66 K, Closed cell (Static) method, Liquid",0.04054 ± 0.00094 kPa
same,vapor or sublimation pressure,"[1]; 362.63 K, Closed cell (Static) method, Liquid",0.04582 ± 0.001 kPa
same,vapor or sublimation pressure,"[1]; 364.61 K, Closed cell (Static) method, Liquid",0.05247 ± 0.0011 kPa
same,vapor or sublimation pressure,"[1]; 366.58 K, Closed cell (Static) method, Liquid",0.05911 ± 0.0012 kPa
same,vapor or sublimation pressure,"[1]; 368.55 K, Closed cell (Static) method, Liquid",0.06722 ± 0.0014 kPa
same,vapor or sublimation pressure,"[1]; 370.52 K, Closed cell (Static) method, Liquid",0.07569 ± 0.0015 kPa
same,Normal melting temperature,[1]; Crystal,44.2 ± 0.4 °C
same,Molar enthalpy of transition or fusion,[2],4.64 ± 0.167 kcal/mol
